The text below walks through data of ChEMBL document CHEMBL1133333, “Structural comparison between type I and type II antagonists: possible implications in the drug design of AT1 antagonists” (Bioorg Med Chem Lett, 2000).

By pA2 is commonly meant the negative logarithm of the molar antagonist concentration that doubles the agonist concentration needed for the same response. High values mean a more potent antagonist, low ones a weaker antagonist.

The structures appear in SMILES notation. Where only a bound is given, the exact number is not on record here.

In this experiment the target is T1, Angiotensin II receptor (AT-1) type-1 (Rattus norvegicus, UniProt P29089+P25095).
T1 sequence (P29089 whole entry): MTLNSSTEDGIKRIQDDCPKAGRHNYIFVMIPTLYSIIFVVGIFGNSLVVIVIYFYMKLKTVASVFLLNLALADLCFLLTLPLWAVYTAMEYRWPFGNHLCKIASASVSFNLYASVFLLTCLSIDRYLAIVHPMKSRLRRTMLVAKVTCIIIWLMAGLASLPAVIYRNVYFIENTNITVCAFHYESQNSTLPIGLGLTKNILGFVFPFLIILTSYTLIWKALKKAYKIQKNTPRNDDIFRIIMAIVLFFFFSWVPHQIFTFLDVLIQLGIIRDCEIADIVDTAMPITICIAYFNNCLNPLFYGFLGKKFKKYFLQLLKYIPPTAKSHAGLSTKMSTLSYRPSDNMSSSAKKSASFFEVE
T1 sequence (P25095 whole entry): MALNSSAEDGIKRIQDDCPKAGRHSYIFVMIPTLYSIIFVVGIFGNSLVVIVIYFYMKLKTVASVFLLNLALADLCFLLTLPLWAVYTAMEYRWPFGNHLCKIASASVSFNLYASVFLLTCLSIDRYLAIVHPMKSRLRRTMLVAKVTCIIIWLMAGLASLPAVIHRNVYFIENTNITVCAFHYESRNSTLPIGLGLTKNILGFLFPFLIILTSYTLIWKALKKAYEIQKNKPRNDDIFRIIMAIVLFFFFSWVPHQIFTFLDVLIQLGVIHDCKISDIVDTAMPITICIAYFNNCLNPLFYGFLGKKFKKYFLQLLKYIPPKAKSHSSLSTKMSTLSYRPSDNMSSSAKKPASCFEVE
In words: Antagonistic activity against Angiotensin II receptor type 1 in rat uterus. The experiment is classed as functional, tissue-based.
The compound `CC[C@H](C)[C@H](NC(=O)[C@H](Cc1ccc(OC)cc1)NC(=O)[C@@H](NC(=O)[C@H](CCCN=C(N)N)NC(=O)CNC)C(C)C)C(=O)N[C@@H](Cc1c[nH]cn1)C(=O)N1CCC[C@H]1C(=O)N[C@@H](CCO)C(=O)O` gave a pA2 of 5.7.
For `CC[C@H](C)[C@H](NC(=O)[C@H](Cc1ccc(O)cc1)NC(=O)[C@@H](NC(=O)[C@H](CCCN=C(N)N)NC(=O)[C@@H](N)CC(=O)O)C(C)C)C(=O)N[C@@H](Cc1c[nH]cn1)C(=O)N1CCC[C@H]1C(=O)N[C@@H](CCO)C(=O)O` the value was 6.7.
Compound `CC[C@H](C)[C@H](NC(=O)[C@H](Cc1ccc(OC)cc1)NC(=O)[C@@H](NC(=O)[C@H](CCCN=C(N)N)NC(=O)CNC)C(C)C)C(=O)N[C@@H](Cc1c[nH]cn1)C(=O)N1CCC[C@H]1C(=O)N[C@@H](Cc1ccccc1)C(=O)O` returned a pA2 of 7.5.
The value for `CC[C@H](C)[C@H](NC(=O)[C@@H]1CCCN1C(=O)[C@H](Cc1c[nH]cn1)NC(=O)[C@@H](NC(=O)[C@H](Cc1ccc(OC)cc1)NC(=O)[C@@H](NC(=O)[C@H](CCCN=C(N)N)NC(=O)CNC)C(C)C)[C@@H](C)CC)C(=O)O` was 6.6; that for `CC[C@H](C)[C@H](NC(=O)[C@H](Cc1ccc(OC)cc1)NC(=O)[C@@H](NC(=O)[C@H](CCCN=C(N)N)NC(=O)[C@@H](N)CC(=O)O)C(C)C)C(=O)N[C@@H](Cc1c[nH]cn1)C(=O)N1CCC[C@H]1C(=O)N[C@@H](CCO)C(=O)O` was 5.4; that for `CC[C@H](C)[C@H](NC(=O)[C@H](Cc1ccc(OC)cc1)NC(=O)[C@@H](NC(=O)[C@@H](N)CCCN=C(N)N)C(C)C)C(=O)N[C@@H](Cc1c[nH]cn1)C(=O)N1CCC[C@H]1C(=O)N[C@@H](CCO)C(=O)O` was below 4.8.
Regarding `CC[C@H](C)[C@H](NC(=O)[C@H](Cc1ccc(O)cc1)NC(=O)[C@@H](NC(=O)[C@@H](N)CCCN=C(N)N)C(C)C)C(=O)N[C@@H](Cc1c[nH]cn1)C(=O)N1CCC[C@H]1C(=O)N[C@@H](CCO)C(=O)O`, the pA2 is below 4.8.
The value for `CC[C@H](C)[C@H](NC(=O)[C@H](Cc1ccc(O)cc1)NC(=O)[C@@H](NC(=O)[C@H](CCCN=C(N)N)NC(=O)CNC)C(C)C)C(=O)N[C@@H](Cc1c[nH]cn1)C(=O)N1CCC[C@H]1C(=O)N[C@@H](CCO)C(=O)O` was 7.8.
